{
  "source": "ChEMBL document CHEMBL1155656",
  "about": "“Thirteen novel cycloartane-type triterpenes from Combretum quadrangulare” (2000)",
  "data": [
    {"test": "Cytotoxicity against mouse 26-L5 cells", "format": "functional", "conditions": "read-out: ED50 (the source's name)", "units": {"EC50": "mg/L"}, "values": [
      {"smiles": "C=C(C)[C@H](O)CC[C@@H](C(=O)O)[C@H]1CC[C@@]2(C)[C@@H]3CC[C@H]4[C@](C)(C(=O)OC)[C@@H](O)C[C@H](O)[C@@]45C[C@@]35CC[C@]12C", "EC50": "> 100"},
      {"smiles": "C=C(CC[C@@H](C)[C@H]1CC[C@@]2(C)[C@@H]3[C@@H](O)C[C@H]4[C@](C)(C(=O)O)[C@@H](O)C[C@H](O)[C@@]45C[C@@]35CC[C@]12C)C(C)C", "EC50": 37.3},
      {"smiles": "C[C@H](CC[C@H](O)C(C)(C)O)[C@H]1CC[C@@]2(C)[C@@H]3CC[C@H]4[C@](C)(C(=O)O)[C@@H](O)C[C@H](O)[C@@]45C[C@@]35CC[C@]12C", "EC50": "> 100"},
      {"smiles": "C=C(C)[C@@H](O)CC[C@@H](CO)[C@H]1CC[C@@]2(C)[C@@H]3CC[C@H]4[C@](C)(C(=O)OC)[C@@H](O)C[C@H](O)[C@@]45C[C@@]35CC[C@]12C", "note": "[METHYL QUADRANGULARATE]", "EC50": 29.4},
      {"smiles": "C[C@H](CCC(=O)O)[C@H]1CC[C@@]2(C)[C@@H]3CC[C@H]4[C@](C)(C(=O)O)[C@@H](O)C[C@H](O)[C@@]45C[C@@]35CC[C@]12C", "note": "[NORQUADRANGULARIC ACID A]", "EC50": "> 100"},
      {"smiles": "COC(=O)[C@]1(C)[C@@H](O)C[C@H](O)[C@]23C[C@]24CC[C@]2(C)[C@@H]([C@@H](C/C=C/C(C)(C)OO)C(=O)O)CC[C@@]2(C)[C@@H]4CC[C@@H]13", "note": "[QUADRANGULARIC ACID F]", "EC50": "> 100"},
      {"smiles": "C=C(C)[C@@H](O)CC[C@@H](C(=O)O)[C@H]1CC[C@@]2(C)[C@@H]3CC[C@H]4[C@](C)(C(=O)OC)[C@@H](O)C[C@H](O)[C@@]45C[C@@]35CC[C@]12C", "note": "[QUADRANGULARIC ACID G]", "EC50": "> 100"},
      {"smiles": "C=C(C)C(=O)CC[C@@H](C(=O)O)[C@H]1CC[C@@]2(C)[C@@H]3CC[C@H]4[C@](C)(C(=O)O)[C@@H](O)C[C@H](O)[C@@]45C[C@@]35CC[C@]12C", "note": "[QUADRANGULARIC ACID H]", "EC50": "> 100"},
      {"smiles": "COC(C)(C)/C=C/C[C@@H](C)[C@H]1CC[C@@]2(C)[C@@H]3CC[C@H]4[C@](C)(C(=O)O)[C@@H](O)C[C@H](O)[C@@]45C[C@@]35CC[C@]12C", "note": "[QUADRANGULARIC ACID J]", "EC50": 86.1},
      {"smiles": "C[C@H](C/C=C\\C(C)(C)O)[C@H]1CC[C@@]2(C)[C@@H]3CC[C@H]4[C@](C)(C(=O)O)[C@@H](O)C[C@H](O)[C@@]45C[C@@]35CC[C@]12C", "note": "[QUADRANGULARIC ACID K]", "EC50": 82.6},
      {"smiles": "C[C@H](CC[C@@H](O)C(C)(C)O)[C@H]1CC[C@@]2(C)[C@@H]3CC[C@H]4[C@](C)(C(=O)O)[C@@H](O)C[C@H](O)[C@@]45C[C@@]35CC[C@]12C", "note": "[QUADRANGULARIC ACID L]", "EC50": "> 100"}
    ]}
  ]
}
